Measurements taken from patent publication US10918741B2, “PSMA-targeting imaging agents” (THE CLEVELAND CLINIC FOUNDATION, priority 2014, dated 2021).
Entries after “also recorded” stand apart in the source; their conditions may differ. Like-named read-outs stand apart in the source and are kept apart here. *1 amine or outer side, *2 acyl side, *3 side chain or, on linkers, in order; H or OH if unused. Where a SMILES comes first, the peptide text is derived from it. [ ]: non-standard residue; d: D form. γGlu = O=C(O)[C@H](CCC(=O)[*:2])N[*:1]; X1 = O=C(C1CCC(CN[*:1])CC1)[*:2]; CO = O=C([*:1])[*:2]; Ahx = NCCCCCC(=O)O

Experiments:
PSMA [1] = molecular target: T1, PSMA (Homo sapiens, UniProt Q04609); conditions: cited from earlier work; for (per patient) lesion detection rate: 37 patients with prostate cancer; for non-PSMA related background in humans, in words / lesion detection in humans, in words: early human trials
T1 sequence (Q04609 whole entry): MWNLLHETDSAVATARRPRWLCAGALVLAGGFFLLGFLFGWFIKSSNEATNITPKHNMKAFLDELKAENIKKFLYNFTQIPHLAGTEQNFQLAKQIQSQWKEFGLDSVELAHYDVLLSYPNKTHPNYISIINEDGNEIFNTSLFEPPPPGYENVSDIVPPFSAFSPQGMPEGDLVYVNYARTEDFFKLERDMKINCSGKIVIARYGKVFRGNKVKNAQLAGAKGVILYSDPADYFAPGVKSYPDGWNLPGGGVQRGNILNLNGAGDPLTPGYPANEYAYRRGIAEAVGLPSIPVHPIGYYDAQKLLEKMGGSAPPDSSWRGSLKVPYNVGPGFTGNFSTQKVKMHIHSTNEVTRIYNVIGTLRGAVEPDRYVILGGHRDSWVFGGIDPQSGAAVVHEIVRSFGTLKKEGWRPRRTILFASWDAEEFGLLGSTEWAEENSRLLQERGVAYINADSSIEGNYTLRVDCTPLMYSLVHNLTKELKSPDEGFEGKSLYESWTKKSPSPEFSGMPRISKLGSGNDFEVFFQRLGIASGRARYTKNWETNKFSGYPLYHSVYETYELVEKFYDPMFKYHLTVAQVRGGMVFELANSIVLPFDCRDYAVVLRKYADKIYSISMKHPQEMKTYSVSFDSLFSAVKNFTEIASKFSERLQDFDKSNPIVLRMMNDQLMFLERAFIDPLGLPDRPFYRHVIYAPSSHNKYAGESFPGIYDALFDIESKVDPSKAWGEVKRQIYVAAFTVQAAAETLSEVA

PSMA [2] = molecular target: T1, PSMA; assay: Competitive binding assay; set-up: endogenous in cells; host or cells: LNCaP (endogenous PSMA, from ATCC) or PC3-PIP (retrovirally transformed PSMA-positive PC3, from Dr. Michel Sadelain)
Protocol: The prostate cancer cell line LNCaP (PSMA-positive) was obtained from American Type Culture Collection (Manassas, Va.). Retrovirally transformed PSMA positive PC3-PIP cells and transfection controlled PC3-flu cells were obtained from Dr. […] (Laboratory of Gene Transfer and Gene Expression, Gene Transfer and Somatic Cell Engineering Facility, Memorial-Sloan Kettering Cancer Center, New York, N.Y.). Cells were grown at 37° C. and 5% CO2 under a humidified atmosphere. […] The mixture was centrifuged at 3,000 g for 5 min at 4° C., then washed three times with 500 μL of cold PBS. […] The concentration required to inhibit 50% of binding was determined (IC50) by Graph Pad Prism 3.0.

[3] = published values, cited from earlier work; for Blood pool activity: 2 hours post injection; for liver background: at 2 hours
[4] = system: PC3-PIP (PSMA+) tumor xenographs; assay: Biodistribution study of [Al^18F]5; assay type: in vivo, mice; conditions: for Biodistribution: Tumor (PC3PIP): preliminary
Protocol: (§1) Positron emission tomography and biodistribution study of [Al^18F]5: Male NSG mice at least 6 weeks old were subcutaneously implanted with two human PC3-PIP (PSMA+) tumor xenographs. When one of the tumors reached 0.5 mL in volume, imaging and biodistribution studies were conducted. For imaging, 0.3-0.4 mCi of [Al^18F]5 was injected via the tail vein. The mouse was anesthetized with isoflurane and imaged at 1 hour post injection on a clinical PET/CT scanner (Biograph mCT, Siemens Molecular Imaging, Hoffman Estates, Ill.) using super-resolution sampling and iterative deconvolution processing. For the biodistribution study without imaging, 50-150 μCi of [Al^18F]5 was injected in PC3-PIP tumor bearing mice which were sacrificed at one and two hours post injection for biodistribution measurements.

[5] = Biodistribution study of [Al^18F]5; assay type: in vivo, mice; conditions: male, NSG, mouse, total radioactivity
Protocol: as §1

[6] = system: PC3-pip (PSMA-positive) and PC3-flu (PSMA-negative) tumors; assay: NIR fluorescence-guided robotic surgery (da Vinci Si); assay type: in vivo, mice
Text: Mouse carcasses were operated on using a da Vinci Si Robot (Intuitive Surgical, Sunnyvale, Calif.). A portable dark box was used to minimize ambient light and to allow optimal fluorescence detection. Three robotic instruments (the novel endoscope to detect NIR fluorescence, a scissor, and a grasper) were inserted through robotic trocars positioned across the top cover of the dark box. The tumors were excised using the new robotic camera to detect the fluorescence of the PSMA-binding conjugate. All procedures were done by a single surgeon (R.S.), who had extensive experience in robotic surgery. Tumor specimens were sent for histopathological analysis to assess margin status.

[7] = system: PC3-pip (PSMA-positive) and PC3-flu (PSMA-negative) tumors; assay: Preoperative NIR imaging with the Maestro in vivo imaging system; set-up: species or system mice
Protocol: PC3-pip (PSMA-positive) and PC3-flu (PSMA-negative) cells were injected subcutaneously 1.0×10^6 PC3 cells with 200 µL of matrigel into each flank of 6 NOD SCID Gamma (NSG) mice. Chang et al., Cancer Res.; 59:3192-3198 (1999). After the tumors reached a size of ˜5 mm, the mice were anesthetized with isoflurane and were administered 2 or 10 nmol of PSMA-binding fluorescent conjugate via tail vein injection. Preoperative NIR imaging was performed using the Maestro in vivo imaging system (Cambridge Research and Instrumentation, Hopkinton, Mass.). The mice were imaged immediately and at 1-hour intervals after injection of the PSMA targeting fluorescent compound for up to 4 hours. The mice were killed once PSMA+ and PSMA− tumors could be visually differentiated by NIR imaging. The method used was CO2 asphyxiation followed by cervical dislocation.

[8] = blood, read-out: Biodistribution: Blood
[9] = liver, read-out: Biodistribution: Liver

In the case of `O=C([O-])CN(CCN(CC(=O)[O-])Cc1cc(CCC(=O)NCCCCCC(=O)NCCCC[C@H](NC(=O)N[C@@H](CCC(=O)O)C(=O)O)C(=O)O)ccc1[O-])Cc1cc(CCC(=O)O)ccc1[O-].[68Ga+3].[OH3+]` [Glu-NH—CO—NHLys(Ahx)-[^68Ga(HBED-CC)]], the “(per patient) lesion detection rate” value (PSMA [1]; at PSA <2.2 ng/ml) is given as 60%, the “(per patient) lesion detection rate” value (PSMA [1]; at PSA >2.2 ng/ml) is given as 100% and the “non-PSMA related background in humans, in words” value (from here on “non-PSMA related background”) (PSMA [1]) is given as “significant uptake in salivary glands, lacrimal glands, and liver”.
For `NC(=O)[C@H](CS)NC(=O)CNC(=O)CNC(=O)CNC(=O)[C@H](Cc1ccc(O)cc1)NC(=O)CNC(=O)[C@@H](CCC(=O)O)NC(=O)[C@@H](CCC(=O)O)NC(=O)[C@@H](CCC(=O)O)NC(=O)CCCCCNC(=O)C1CCC(CNC(=O)CC[C@H](NC(=O)N[C@@H](CCC(=O)O)C(=O)O)C(=O)O)CC1` (stereo partly drawn) [Compound 3, E′E-Amc-Ahx-dEdEdEGYGGGC-NH2] ({Glu-CO-γGlu}-[X1][Ahx][dE][dE][dE]GYGGGC-NH2), the “affinity for PSMA, comparison in words” value (PSMA [2]) was “equivalent to compound 1”.
With `O=C(O)CC[C@H](NC(=O)N[C@@H](CSC1CC(=O)N(CC2CCC(C(=O)NCCCCCC(=O)N[C@@H](Cc3ccc(O)cc3)C(=O)N[C@@H](Cc3ccc(O)cc3)C(=O)N[C@@H](Cc3ccc(O)cc3)C(=O)NCC(=O)O)CC2)C1=O)C(=O)O)C(=O)O` (stereo partly shown) [Compound 2, ZJ-MCC-Ahx-YYYG] the “affinity for PSMA, comparison in words” value (PSMA [2]) was “affinity comparable to the parent urea ligand; also recorded: Neither compound came close to matching the affinity of RBI-1033”.
For `NC(=O)[C@H](CCCCNC(=S)Nc1ccc(CC2CN(CC(=O)O)CCN(CC(=O)O)CCN2CC(=O)O)cc1)NC(=O)[C@H](Cc1ccc(O)cc1)NC(=O)[C@H](CCC(=O)O)NC(=O)[C@H](CCC(=O)O)NC(=O)[C@H](CCC(=O)O)NC(=O)CCCCCNC(=O)CC[C@H](NC(=O)N[C@@H](CCC(=O)O)C(=O)O)C(=O)O` (single isomer, unassigned) [Compound 5, E′E-Ahx-EEEYK(Bn-NOTA)-NH2], the “affinity for PSMA, comparison in words” value (PSMA [2]) was “same affinity for PSMA as compound 4”.
For `O=C(O)CC[C@H](NC(=O)N[C@@H](CCCCNCc1ccc([123I])cc1)C(=O)O)C(=O)O` [^123I-MIP-1072], the “lesion detection in humans, in words” value (PSMA [1]) is given as “detection of soft tissue and bone metastases, as well as tumors in the prostate bed”, the “non-PSMA related background” value (PSMA [1]) is given as “significant uptake in salivary glands, lacrimal glands, and liver” and the Blood pool activity [3] is given as 0.21 % ID/g. For the same molecule, the liver background [3] was 2.17 % ID/g.
For `NC(=O)[C@H](CCCCNC(=S)Nc1ccc(CC2CN(CC(=O)O)CCN(CC(=O)O)CCN2CC(=O)O)cc1)NC(=O)[C@H](Cc1ccc(O)cc1)NC(=O)[C@H](CCC(=O)O)NC(=O)[C@H](CCC(=O)O)NC(=O)[C@H](CCC(=O)O)NC(=O)CCCCCNC(=O)CC[C@H](NC(=O)N[C@@H](CCC(=O)O)C(=O)O)C(=O)O` (single isomer, unassigned) [[Al^18F]5], the “Biodistribution: Blood” value ([4]; 1 hour) was 0.18% ± 0.09%, the “Biodistribution: Bone” value ([4]; 1 hour) was 0.39% ± 0.28% and the “Biodistribution: Heart” value ([4]; 1 hour) was 0.14% ± 0.11%. For the same molecule, the “Biodistribution: Kidney” value ([4]; 1 hour) was 16.82% ± 5.60%, the “Biodistribution: Liver” value ([4]; 1 hour) was 0.41% ± 0.10% and the “Biodistribution: Lung” value ([4]; 1 hour) was 0.21% ± 0.05%. For the same molecule, the “Biodistribution: Muscle” value ([4]; 1 hour) was 0.19% ± 0.12%, the “Biodistribution: Small Intestine” value ([4]; 1 hour) was 0.43% ± 0.51% and the “Biodistribution: Spleen” value ([4]; 1 hour) was 0.29% ± 0.14%. For the same molecule, the “Biodistribution: Stomach” value ([4]; 1 hour) was 0.10% ± 0.03%, the “Biodistribution: Thyroid” value ([4]; 1 hour) was 0.11% ± 0.02% and the “Biodistribution: Tumor (PC3PIP)” value ([4]; 1 hour, n = 4) was 6.91% ± 1.44%. The “Biodistribution: Heart” value ([4]; 2 hour) was 0.04% ± 0.01%, the “Biodistribution: Kidney” value ([4]; 2 hour) was 5.96% ± 2.17% and the “Biodistribution: Lung” value ([4]; 2 hour) was 0.07% ± 0.04%. For the same molecule, the “Biodistribution: Small Intestine” value ([4]; 2 hour) was 0.18% ± 0.02%, the “Biodistribution: Spleen” value ([4]; 2 hour) was 0.10% ± 0.04% and the “Biodistribution: Stomach” value ([4]; 2 hour) was 0.03% ± 0.02%. For the same molecule, the “Biodistribution: Thyroid” value ([4]; 2 hour) was 0.05% ± 0.00%, the “Tumor:blood” value ([4]; 2 hour) was 115 and the “Tumor:bone” value ([4]; 2 hour) was 46. For the same molecule, the “Tumor:liver” value ([4]; 2 hour) was 27, the “Tumor:muscle” value ([4]; 2 hour) was 458 and the “Tumor:spleen” value ([4]; 2 hour) was 46. The “Biodistribution: Tumor (PC3PIP)” value ([4]; 2 hour, n = 6) was 4.58% ± 0.55%, the “dissociation of ^18F-fluoride from the complex (from bone uptake)” value ([4]; mouse, in vivo) was “no significant dissociation of ^18F-fluoride from the complex” and the excretion in words ([4]; mouse, in vivo) was “very fast renal excretion”. It also gave a tissue uptake at 1 h [5, 8] of ~0.18 %ID/g, a tissue uptake at 2 h [5, 8] of 0.04 %ID/g and a tissue uptake at 2 h ([5]; bone, read-out: Biodistribution: Bone) of 0.1 %ID/g. The tissue uptake at 1 h [5, 9] was ~0.4 %ID/g, the tissue uptake at 2 h [5, 9] was 0.17 %ID/g and the tissue uptake at 2 h ([5]; muscle, read-out: Biodistribution: Muscle) was 0.01 %ID/g. It also gave a tissue uptake at 2 h ([5]; tumor (PC3-PIP), n = 6, preliminary, read-out: Biodistribution: Tumor (PC3PIP)) of 4.6 %ID/g.
In the case of ZJ-MCC-dEdEdEGK(IRDye800cw)G, the “mice with fluorescence detected from the PSMA positive tumors during robotic surgery” value ([6]; 10 nmol, 120 minutes after injection) is reported as 2 of 3, the “intensity of fluorescence during robotic surgery” value ([6]; PSMA positive tumors) is reported as “weak” and the “fluorescence in the PSMA negative (control) tumors” value ([6]; mouse, in vivo) is reported as “no tumor fluorescence was identified in any of the mice”. For the same molecule, the “mice with proper targeting on presurgical NIR imaging” value ([7]; 10 nmol) was “Two of the 3 mice”, the “preoperative NIR fluorescence imaging result in words” value ([7]; Maestro in vivo imaging system) was “strong fluorescence signal from the tracer in the right flank (PSMA positive tumor), bladder, and urethra” and the “time to detect peak fluorescence from the PSMA-positive tumors” value ([7]; first 3 mice, Maestro imaging system) was 120 min. For the same molecule, the “signal intensity from the tumor” value ([7]; within 240 minutes) was “already partially decreased”.
In the case of `O=C(O)CC[C@H](NC(=O)N[C@@H](CCCCNC(=O)Nc1ccc([123I])cc1)C(=O)O)C(=O)O` [^123I-MIP-1095], the “lesion detection in humans, in words” value (PSMA [1]) is given as “detection of soft tissue and bone metastases, as well as tumors in the prostate bed” and the “non-PSMA related background” value (PSMA [1]) is given as “significant uptake in salivary glands, lacrimal glands, and liver”.
For `O=C(O)CC[C@H](NC(=O)N[C@@H](CCCCNC(=O)c1ccc([18F])nc1)C(=O)O)C(=O)O` [^18F-DCFPyL], the Blood pool activity [3] is listed as 0.4 % ID/g and the liver background [3] is listed as 2.1 % ID/g.
For `O=C(O)CC[C@H](NC(=O)N[C@@H](CSC1CC(=O)N(CC2CCC(C(=O)NCCCCCC(=O)N[C@H](CCC(=O)O)C(=O)N[C@H](CCC(=O)O)C(=O)N[C@H](CCC(=O)O)C(=O)NCC(=O)O)CC2)C1=O)C(=O)O)C(=O)O` (stereo partly shown) [Compound 1, ZJ-MCC-Ahx-dEdEdEG], the “affinity for PSMA, comparison in words” value (PSMA [2]) was “affinity comparable to the parent urea ligand; also recorded: Neither compound came close to matching the affinity of RBI-1033” and the IC50 (PSMA [2]; LNCaP or PC3-PIP cells, 12 nM [^3H] ligand, 1 hour at 37° C., 95% confidence intervals in parentheses) was 2.2 nM.
In the case of `O=C(O)CC[C@H](NC(=O)N[C@@H](CSCc1ccc([18F])cc1)C(=O)O)C(=O)O` [^18F-DCFBC], the “lesion detection in humans, in words” value (PSMA [1]) is listed as “detected lymph node and bone metastases at 2 hr post injection”, the “non-PSMA related background” value (PSMA [1]) is listed as “elevated liver background and unexpected blood pool retention” and the Blood pool activity [3] is listed as 0.4 % ID/g. For the same molecule, the liver background [3] was 2.1 % ID/g.
